According to patent US12583938B2, “Protein biomarker and uses thereof” (Daiichi Sankyo Co., Ltd., priority 2013, dated 2026):

System: Stage IIIb/IV NSCLC
Protocol: In both portions of the study, subjects received 150 mg of erlotinib orally once daily. […] Tumors were to be assessed every 6 weeks (±3 days) up to the first 24 weeks of the study, then every 12 weeks (±7 days) independent of treatment cycle.
An “HRG high” subject was defined as a subject with observed soluble HRG concentration of higher than 980 pg/mL, the Quartile 3 of the sample set. Soluble HRC concentration was measured by the improved ELISA method disclosed herein.
At the point of primary analysis, the treatment assignment for all subjects was unblinded to designated study personnel for analysis after data were reconciled and cleaned, and a snapshot of the clean database was created. To minimize potential bias, individual treatment assignment was not divulged to subjects or Investigators until study closure.
All efficacy analyses were performed on the full analysis set, which includes all subjects in the randomized analysis set who received at least one dose of randomized study medication. The primary efficacy endpoint was PFS. PFS is defined as the time from the date of randomization to the earlier of the dates of the first objective documentation of radiographic disease progression or death due to any cause. A subject who was alive with no objective documentation of (radiographic) disease progression by the data cut-off date was to be censored at the date of the last evaluable tumor assessment. The key secondary efficacy endpoint, overall survival, was defined as the time from the date of randomization to death due to any cause and was analyzed in the same manner as the primary efficacy endpoint PFS.
Kaplan-Meier curves were generated for PFS and used to calculate medians and 95% CIs for each treatment group.
The stratification factors included histology (Adenocarcinoma vs Non-Adenocarcinoma) and best response to prior therapy (CR/PR/SD vs PD). […] Cox's proportional hazards model with the same stratification factors used for the stratified log-rank test.
Unless otherwise indicated, tog-rank p-values and HRs for PFS and OS were based on the primary analysis adjusted for the stratification factors at randomization as described above.

[1] = Placebo + erlotinib (N = 71), Enrolled/Randomized Analysis Set
[2] = Placebo + erlotinib (N = 71), Full Analysis Set

## C#Cc1cccc(Nc2ncnc3cc(OCCOC)c(OCCOC)cc23)c1 [erlotinib, reference compound]
[1]
  On-Study Death: 13 subjects
  Primary Cause of On-Study Death: Adverse Event: 5 subjects
  Primary Cause of On-Study Death: Disease Progression: 8 subjects
  Primary Reason for Discontinuing Study Treatment: Death: 4 subjects
  Primary Reason for Discontinuing Study Treatment: Progressive Disease (Radiographic Progression): 50 subjects
[2]
  OS: Subjects (%) with events: 48 (67.6%) subjects (%)
  OS: Subjects (%) without events (censored): 23 (32.4%) subjects (%)
  PFS: Subjects (%) with events: 59 (83.1%) subjects (%)
  PFS: Subjects (%) without events (censored): 12 (16.9%) subjects (%)
Placebo + erlotinib (N = 71), Full Analysis Set, Kaplan-Meier Estimate
  Progression-Free Survival, Time to event, Median: 1.6 months
Placebo + erlotinib (N = 71), Full Analysis Set, Kaplan-Meier Estimate, preliminary
  Overall Survival, Time to event, Median: 7.2 months
Placebo + erlotinib
  number of subjects with the response being CR/PR: 4 (5.6%) subjects (%)
